The structures appear in SMILES notation.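 Cells were grown in 96-well plates and exposed to each compound for 48 hours at five concentrations; endpoints were interpolated linearly between bracketing concentrations, or set to the highest concentration if not reached. TGI denotes the concentration required for complete inhibition of growth.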 A value given as a limit tells only on which side of the number the result lay.

The subject of one assay is 786-0 renal. The assay can be described thus: inhibition of tumour cell growth, NCI panel, 48 h.
The compound `CC#C[P+](c1ccccc1)(c1ccccc1)c1ccccc1` returned a TGI of 10.7 µM.
The same measure, in the same setting: the result for `COc1ccc(/C=N/n2c(-c3ccccc3)n[nH]c2=O)cc1` reads > 100 µM.
Same read-out and setting: the result for `O=P(O)(Cc1ccccc1)c1ccccc1-c1ccccc1` reads > 100 µM; that for `CC12CC(C#N)(C#N)C(C#N)(CO1)C(=N)O2` (centres undefined), > 100 µM.
Take `COc1cccc2c1C(=O)c1c(O)c3c(c(O)c1C2=O)C[C@@](O)(C(=O)CO)C[C@@H]3OC1CC(N)C(OC)C(C)O1` (some centres undefined): the TGI was found to be 18.2 µM.
Still for that read-out and setting: with `CC(C)(C)NC(=O)N1N=C(c2ccccc2)C1c1ccccc1` (centres undefined) the figure was 32 µM.
Same read-out and setting: with `COc1cc2c(cc1O)C1C(O)C(O)C=C3CCN(C2)C31` (centres undefined) the figure was 11.9 µM.
Same read-out and setting: with `COC(=O)C1C=CN(N(C)C)C2=C1C(=O)c1c(O)cccc1C2=O` (centres undefined) the figure was 11.4 µM.

A further assay concerns A498 renal. Briefly: inhibition of tumour cell growth, NCI panel, 48 h.
In the case of `CC#C[P+](c1ccccc1)(c1ccccc1)c1ccccc1`, the TGI is > 100 µM.
With `CCCC(O)C(NC(=O)CCl)C(=O)O` (centres undefined), the TGI is > 100 µM.
Still for that read-out and setting: with `COc1ccc(/C=N/n2c(-c3ccccc3)n[nH]c2=O)cc1` the figure was > 100 µM; with `CC12CC(C#N)(C#N)C(C#N)(CO1)C(=N)O2` (centres undefined), > 100 µM; with `COc1cc(/C=C/C(=O)O)ccc1C(=O)OCc1ccccc1`, > 100 µM.
`O=C(CC(=O)c1ccccc1)CC(O)(c1ccccc1)c1ccccc1` yielded a TGI of 25.1 µM.
Still for that read-out and setting: the result for `Cc1cccc(C(C)C)c1NC(=O)CC1Sc2ccccc2NC1=O` (centres undefined) reads > 100 µM.
On the same count and under the same terms, the result for `COc1cccc2c1C(=O)c1c(O)c3c(c(O)c1C2=O)C[C@@](O)(C(=O)CO)C[C@@H]3OC1CC(N)C(OC)C(C)O1` (some centres undefined) reads 0.582 µM.
`CC(C)(C)NC(=O)N1N=C(c2ccccc2)C1c1ccccc1` (centres undefined): the TGI was > 100 µM.
On the same count and under the same terms, the result for `CC(C)=CCc1c(O)ccc2ccc(=O)oc12` reads > 100 µM.
Still for that read-out and setting: the result for `COC(=O)C1C=CN(N(C)C)C2=C1C(=O)c1c(O)cccc1C2=O` (centres undefined) reads 7.47 µM.

The next assay relates to CAKI-1 renal. Briefly: inhibition of tumour cell growth, NCI panel, 48 h.
Compound `CC#C[P+](c1ccccc1)(c1ccccc1)c1ccccc1` yielded a TGI of 11.3 µM.
Same read-out and setting: the result for `CCCC(O)C(NC(=O)CCl)C(=O)O` (centres undefined) reads > 100 µM; that for `COc1ccc(/C=N/n2c(-c3ccccc3)n[nH]c2=O)cc1`, > 100 µM; that for `O=P(O)(Cc1ccccc1)c1ccccc1-c1ccccc1`, > 100 µM.
The same measure, in the same setting: the result for `CC12CC(C#N)(C#N)C(C#N)(CO1)C(=N)O2` (centres undefined) reads > 100 µM.
The compound `O=C(CC(=O)c1ccccc1)CC(O)(c1ccccc1)c1ccccc1` showed a TGI of 13.4 µM.
Still for that read-out and setting: the result for `Cc1cccc(C(C)C)c1NC(=O)CC1Sc2ccccc2NC1=O` (centres undefined) reads > 100 µM.
Still for that read-out and setting: the result for `CC(C)(C)NC(=O)N1N=C(c2ccccc2)C1c1ccccc1` (centres undefined) reads 59.1 µM; that for `COc1cc2c(cc1O)C1C(O)C(O)C=C3CCN(C2)C31` (centres undefined), 10.1 µM; that for `CC(C)=CCc1c(O)ccc2ccc(=O)oc12`, > 100 µM.
Same read-out and setting: the result for `COC(=O)C1C=CN(N(C)C)C2=C1C(=O)c1c(O)cccc1C2=O` (centres undefined) reads 5.7 µM.

Another assay deals with CCRF-CEM leukemia. The assay can be described thus: inhibition of tumour cell growth, NCI panel, 48 h.
`CC#C[P+](c1ccccc1)(c1ccccc1)c1ccccc1` gave a TGI of 3.57 µM.
Same read-out and setting: with `CCCC(O)C(NC(=O)CCl)C(=O)O` (centres undefined) the figure was > 100 µM.
The same measure, in the same setting: with `COc1ccc(/C=N/n2c(-c3ccccc3)n[nH]c2=O)cc1` the figure was > 100 µM; with `O=P(O)(Cc1ccccc1)c1ccccc1-c1ccccc1`, > 100 µM; with `CC12CC(C#N)(C#N)C(C#N)(CO1)C(=N)O2` (centres undefined), 69.1 µM.
Same read-out and setting: with `COc1cc(/C=C/C(=O)O)ccc1C(=O)OCc1ccccc1` the figure was > 100 µM.
`O=C(CC(=O)c1ccccc1)CC(O)(c1ccccc1)c1ccccc1`: the TGI is 26 µM.
Regarding `Cc1cccc(C(C)C)c1NC(=O)CC1Sc2ccccc2NC1=O` (centres undefined), the TGI is > 100 µM.
On the same count and under the same terms, with `COc1cccc2c1C(=O)c1c(O)c3c(c(O)c1C2=O)C[C@@](O)(C(=O)CO)C[C@@H]3OC1CC(N)C(OC)C(C)O1` (some centres undefined) the figure was 0.176 µM.
On the same count and under the same terms, with `CC(C)(C)NC(=O)N1N=C(c2ccccc2)C1c1ccccc1` (centres undefined) the figure was > 100 µM; with `COc1cc2c(cc1O)C1C(O)C(O)C=C3CCN(C2)C31` (centres undefined), 72.6 µM; with `CC(C)=CCc1c(O)ccc2ccc(=O)oc12`, > 100 µM.
Still for that read-out and setting: with `COC(=O)C1C=CN(N(C)C)C2=C1C(=O)c1c(O)cccc1C2=O` (centres undefined) the figure was 5.04 µM.

The next assay deals with COLO 205 colon. Briefly: inhibition of tumour cell growth, NCI panel, 48 h.
Take `CC#C[P+](c1ccccc1)(c1ccccc1)c1ccccc1`: the TGI worked out at 2.77 µM.
On to `CCCC(O)C(NC(=O)CCl)C(=O)O` (centres undefined), for which the TGI is > 100 µM.
Turning to `COc1ccc(/C=N/n2c(-c3ccccc3)n[nH]c2=O)cc1`, the TGI is > 100 µM.
On the same count and under the same terms, the result for `O=P(O)(Cc1ccccc1)c1ccccc1-c1ccccc1` reads > 100 µM; that for `CC12CC(C#N)(C#N)C(C#N)(CO1)C(=N)O2` (centres undefined), > 100 µM.
Still for that read-out and setting: with `COc1cc(/C=C/C(=O)O)ccc1C(=O)OCc1ccccc1` the figure was > 100 µM.
Turning to `O=C(CC(=O)c1ccccc1)CC(O)(c1ccccc1)c1ccccc1`, the TGI was found to be 24.6 µM.
The same measure, in the same setting: the result for `Cc1cccc(C(C)C)c1NC(=O)CC1Sc2ccccc2NC1=O` (centres undefined) reads > 100 µM.
On the same count and under the same terms, the result for `COc1cccc2c1C(=O)c1c(O)c3c(c(O)c1C2=O)C[C@@](O)(C(=O)CO)C[C@@H]3OC1CC(N)C(OC)C(C)O1` (some centres undefined) reads 1.94 µM; that for `CC(C)(C)NC(=O)N1N=C(c2ccccc2)C1c1ccccc1` (centres undefined), > 100 µM.
Still for that read-out and setting: the result for `COc1cc2c(cc1O)C1C(O)C(O)C=C3CCN(C2)C31` (centres undefined) reads 3.14 µM.
